Several values for one entry are separate records, joined by “and”; a condition that tells them apart may be missing. Equal entries are not always repeated.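 Values below derive from 48-hour exposures of cells grown in 96-well plates, with endpoints linearly interpolated between the two concentrations bracketing the appropriate inhibition level. GI50: concentration for 50% inhibition of growth. The concentration for full growth arrest is given as TGI.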
What was measured:
Test in all cases: NCI tumour cell line growth inhibition, 48 h
DLD-1 colon = system: DLD-1 colon
HOP-18 NSCLC = system: HOP-18 NSCLC
LXFL 529 NSCLC = system: LXFL 529 NSCLC
M19-MEL melanoma = system: M19-MEL melanoma
MDA-N = system: MDA-N
P388 leukemia = system: P388 leukemia
P388/ADR leukemia = system: P388/ADR leukemia
SNB-78 CNS = system: SNB-78 CNS
T-47D breast = system: T-47D breast
XF 498 CNS = system: XF 498 CNS
RXF-631 renal = system: RXF-631 renal

| Compound | GI50 (DLD-1 colon) | TGI (DLD-1 colon) | GI50 (HOP-18 NSCLC) | TGI (HOP-18 NSCLC) | TGI (LXFL 529 NSCLC) | GI50 (M19-MEL melanoma) | TGI (M19-MEL melanoma) | TGI (MDA-N) | GI50 (P388 leukemia) | TGI (P388 leukemia) | GI50 (P388/ADR leukemia) | TGI (P388/ADR leukemia) | GI50 (SNB-78 CNS) | TGI (SNB-78 CNS) | GI50 (T-47D breast) | TGI (T-47D breast) | GI50 (XF 498 CNS) | TGI (XF 498 CNS) | TGI (RXF-631 renal) |
| --- | --- | --- | --- | --- | --- | --- | --- | --- | --- | --- | --- | --- | --- | --- | --- | --- | --- | --- | --- |
| N[C@@H](Cc1ccc(N(CCCl)CCCl)cc1)C(=O)O | 24.5 µM | > 92 µM and 193 µM | 23.7 µM and 55.1 µM | 64.5 µM and 158 µM | 110 µM | 15.9 µM | 45.3 µM and 102 µM | 126 µM | 1.79 µM | 35.9 µM and 42.9 µM | 2.59 µM | 37.7 µM and 76.3 µM | 25.6 µM | 83.7 µM and 205 µM | 34.3 µM | > 100 µM and 116 µM | 20.9 µM and 22 µM | 49.3 µM and 66.3 µM |  |
| COc1nc(C(Cl)(Cl)Cl)c(Cl)c(OC)c1Cl | 31.7 µM | 79.8 µM |  | 70.1 µM |  | 25.3 µM | 58.5 µM and 67 µM | 57.5 µM |  | 43 µM |  | 85.9 µM |  | 72.3 µM |  | 77.6 µM |  | 54.5 µM | 49.4 µM |

Reference: PubChem BioAssay (NCI)
